We go through 15 compounds from US20090221567A1, “MUSCARINIC RECEPTOR AGONISTS, COMPOSITIONS, METHODS OF TREATMENT THEREOF, AND PROCESSES FOR PREPARATION THEREOF 177” (ASTRAZENECA AB, priority 2008, published 2009).

Bounds are passed on as bounds.

The target of assay [1] is T1, hM3 (human Muscarinic receptor subtype 3) (Homo sapiens, UniProt P20309).
T1 construct: expressed in transfected cells; host or cells: CHO cells (Chinese hamster ovary cells, ATCC)
Put plainly: Human M3 calcium mobilization FLIPR assay. The class given is cell-based. The conditions noted are these: receptor expressed in CHO cells, intracellular Ca2+ release. How it is done:
(§1) The compound activity in the present invention (EC50 or IC50) is measured using a 384 plate-based imaging assay that monitors drug induced intracellular Ca^2+ release in whole cells. Activation of hM1 (human Muscarinic receptor subtype 1, gene bank access NM_000738), rM1 (rat Muscarinic receptor subtype 1, gene bank access NM_080773), hM3 (human Muscarinic receptor subtype 3, gene bank access NM_000740NM_000740) and hM5 (human Muscarinic receptor subtype 5, gene bank access NM_0121258), receptors expressed in CHO cells (Chinese hamster ovary cells, ATCC) is quantified in a Molecular Devices FLIPR IITM instrument as an increase in fluorescent signal. Inhibition of hM3 and hM5 by compounds is determined by the decrease in fluorescent signal in response to 2 nM acetylcholine activation.
(§2) Prior to experiment, the cell culture medium is removed from the plates by inversion. […] Plates are incubated at 37° C. for 60 minutes prior to start the experiment. The incubation is terminated by washing the cells four times in assay buffer, leaving a residual 25 μl buffer per well. Cell plates are then transferred to the FLIPR, ready for compound additions.
(§3) The day of experiment, acetylcholine and compounds are diluted in assay buffer in three-fold concentration range (10 points serial dilution) for addition by FLIPR instrument. For all calcium assays, a baseline reading is taken for 10 seconds followed by the addition of 12.5 μl of compounds, resulting in a total well volume of 37.5 μl. Data is collected every second for 60 pictures and then every 6 seconds for 20 pictures prior to the addition of agonist. For hM3 and hM5, before agonist addition, a second baseline reading is taken for 10 seconds followed by the addition of 12.5 μl of agonist or buffer, producing a final volume of 50 μl. After agonist stimulation, the FLIPR continues to collect data every second for 60 pictures and then every 6 seconds for 20 pictures. The fluorescence emission is read using filter 1 (emission 510-570 nm) by the FLIPR on board CCD camera.
(§4) Calcium mobilization output data are calculated as the maximal relative fluorescence unit (RFU) minus the minimal value for both compound and agonist reading frame (except for hM1 and rM1 using only the maximal RFU). Data are analyzed using sigmoidal fits of a non-linear curve-fitting program (XLfit version 4.2.2 Excel add-in version 4.2.2 build 18 math 1Q version 2.1.2 build 18). All pEC50 and pIC50 values are reported as arithmetic means±standard error of mean of ‘n’ independent experiments.

Assay [2] deals with T2, hM5 (human Muscarinic receptor subtype 5) (Homo sapiens, UniProt P08912).
T2 construct: expressed in transfected cells; host or cells: CHO cells (Chinese hamster ovary cells, ATCC)
T2 sequence (P08912 1-532): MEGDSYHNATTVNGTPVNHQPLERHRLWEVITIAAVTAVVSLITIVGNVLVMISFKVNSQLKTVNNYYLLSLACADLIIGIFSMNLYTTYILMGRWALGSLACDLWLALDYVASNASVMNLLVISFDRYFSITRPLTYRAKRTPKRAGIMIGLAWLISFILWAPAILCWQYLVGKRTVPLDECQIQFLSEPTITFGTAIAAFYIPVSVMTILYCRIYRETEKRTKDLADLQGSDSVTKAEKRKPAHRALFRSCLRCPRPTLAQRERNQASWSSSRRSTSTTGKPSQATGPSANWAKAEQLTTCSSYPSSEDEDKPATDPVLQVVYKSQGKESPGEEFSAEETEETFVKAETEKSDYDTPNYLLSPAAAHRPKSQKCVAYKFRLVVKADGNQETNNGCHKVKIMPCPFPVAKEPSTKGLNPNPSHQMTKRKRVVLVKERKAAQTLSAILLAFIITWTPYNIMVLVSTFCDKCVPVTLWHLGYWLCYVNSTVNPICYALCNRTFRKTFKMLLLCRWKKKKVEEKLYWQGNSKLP
Put plainly: Human M5 calcium mobilization FLIPR assay. The format is cell-based. The note with it: receptor expressed in CHO cells, intracellular Ca2+ release. As to the method: as §1, §2, §3, §4

T1 sequence (P20309 whole entry): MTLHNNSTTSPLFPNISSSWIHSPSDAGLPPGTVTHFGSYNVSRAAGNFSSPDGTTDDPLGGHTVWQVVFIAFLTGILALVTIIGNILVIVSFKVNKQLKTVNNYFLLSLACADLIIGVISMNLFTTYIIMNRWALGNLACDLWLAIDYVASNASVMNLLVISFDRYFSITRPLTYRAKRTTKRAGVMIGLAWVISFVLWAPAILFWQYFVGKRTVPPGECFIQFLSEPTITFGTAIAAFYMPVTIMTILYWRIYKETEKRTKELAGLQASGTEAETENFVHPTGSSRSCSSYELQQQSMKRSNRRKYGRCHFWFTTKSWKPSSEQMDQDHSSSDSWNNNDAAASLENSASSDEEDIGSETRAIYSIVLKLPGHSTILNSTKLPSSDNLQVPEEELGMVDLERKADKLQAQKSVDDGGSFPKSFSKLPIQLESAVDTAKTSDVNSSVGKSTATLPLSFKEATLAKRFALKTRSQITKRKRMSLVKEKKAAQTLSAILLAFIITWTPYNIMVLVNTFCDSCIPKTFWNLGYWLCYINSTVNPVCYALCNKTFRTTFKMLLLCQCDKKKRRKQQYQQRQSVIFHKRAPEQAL

Regarding `CCOC(=O)N1CCC(C)(N2CCC(N3C(=O)CO[C@H]4CCCC[C@@H]43)CC2)C1` (single isomer, unassigned) [Example 18], the EC50 in assay [1] and in assay [2] was above 40 µM in each case.
For `CCOC(=O)N1CCC(C)(N2CCC(N3C(=O)CO[C@H]4CCCC[C@@H]43)CC2)C1` (single isomer, unassigned) [Example 19], the EC50 in assay [1] and in assay [2] was above 40 µM each time.
As to `CC(C)OC(=O)N1CCC(N2CCC(N3C(=O)NC[C@H]4CCCC[C@@H]43)CC2)CC1` [Example 2, Propan-2-yl 4-[4-[(4aR,8aS)-2-oxo-3,4,4a,5,6,7,8,8a-octahydroquinazolin-1-yl]-1-piperidyl]piperidine-1-carboxylate], the EC50 in assay [1] is above 49 µM; in assay [2], above 49.2 µM.
As for `O=C(C1CC1)N1CCC(N2CCC(N3C(=O)NC[C@H]4CCCC[C@@H]43)CC2)CC1` [Example 3, (4aR,8aS)-1-[1-[1-(cyclopropanecarbonyl)-4-piperidyl]-4-piperidyl]-3,4,4a,5,6,7,8,8a-octahydroquinazolin-2-one], the EC50 was above 49 µM in assay [1] and above 31.1 µM in assay [2].
As for `Cc1ccccc1C(=O)N1CCC(N2CCC(N3C(=O)NC[C@H]4CCCC[C@@H]43)CC2)CC1` [Example 4, (4aR,8aS)-1-[1-[1-(2-methylbenzoyl)-4-piperidyl]-4-piperidyl]-3,4,4a,5,6,7,8,8a-octahydroquinazolin-2-one], the EC50 in assay [1] was above 49 µM; in assay [2], above 49.2 µM.
On to `CC(C)OC(=O)N1CCC(N2CCC(N3C(=O)N(C)C[C@H]4CCCC[C@@H]43)CC2)CC1` [Example 6, Propan-2-yl 4-[4-[(4aR,8aS)-3-methyl-2-oxo-4a,5,6,7,8,8a-hexahydro-4H-quinazolin-1-yl]-1-piperidyl]piperidine-1-carboxylate], for which the EC50 in assay [1] and in assay [2] was above 40 µM each time.
As to `CCOC(=O)N1CCC(C)(N2CCC(N3C(=O)NC[C@H]4CCCC[C@@H]43)CC2)CC1` [Example 7, Ethyl 4-[4-[(4aR,8aS)-2-oxo-3,4,4a,5,6,7,8,8a-octahydroquinazolin-1-yl]-1-piperidyl]-4-methyl-piperidine-1-carboxylate], the concentration giving a half-maximal response (EC50) in assay [1] is 0.69 µM; in assay [2] it was 0.168 µM.
Take `CC(C)OC(=O)N1CCC(C)(N2CCC(N3C(=O)NC[C@H]4CCCC[C@@H]43)CC2)CC1` [Example 8, Propan-2-yl 4-[4-[(4aR,8aS)-2-oxo-3,4,4a,5,6,7,8,8a-octahydroquinazolin-1-yl]-1-piperidyl]-4-methyl-piperidine-1-carboxylate]: the EC50 in assay [1] and in assay [2] was above 40 µM each time.
Turning to `CCOC(=O)N1CCC(N2CCC(N3C(=O)CO[C@H]4CCCC[C@@H]43)CC2)CC1` [Example 9, Ethyl 4-[4-[(1S,6S)-9-oxo-7-oxa-10-azabicyclo[4.4.0]dec-10-yl]-1-piperidyl]piperidine-1-carboxylate], the EC50 in assay [1] is above 40 µM; in assay [2], 0.0977 µM.
The matching figures for `CC(C)OC(=O)N1CCC(N2CCC(N3C(=O)CO[C@H]4CCCC[C@@H]43)CC2)CC1` [Example 10, Propan-2-yl 4-[4-[(1S,6S)-9-oxo-7-oxa-10-azabicyclo[4.4.0]dec-10-yl]-1-piperidyl]piperidine-1-carboxylate]: above 40 µM and above 40 µM.
As to `Cc1ccccc1C(=O)N1CCC(N2CCC(N3C(=O)CO[C@H]4CCCC[C@@H]43)CC2)CC1` [Example 11, (1S,6S)-10-[1-[1-(2-methylbenzoyl)-4-piperidyl]-4-piperidyl]-7-oxa-10-azabicyclo[4.4.0]decan-9-one], the EC50 in assay [1] and in assay [2] was above 40 µM throughout.
As for `Cn1cccc1C(=O)N1CCC(N2CCC(N3C(=O)CO[C@H]4CCCC[C@@H]43)CC2)CC1` [Example 12, (1S,6S)-10-[1-[1-(1-methylpyrrole-2-carbonyl)-4-piperidyl]-4-piperidyl]-7-oxa-10-azabicyclo[4.4.0]decan-9-one], the EC50 in assay [1] and in assay [2] was above 40 µM throughout.
As for `CCOC(=O)N1CC[C@H](N2CCC(N3C(=O)CO[C@H]4CCCC[C@@H]43)CC2)C1` [Example 13, Ethyl (3S)-3-[4-[(1S,6S)-9-oxo-7-oxa-10-azabicyclo[4.4.0]dec-10-yl]-1-piperidyl]pyrrolidine-1-carboxylate], the EC50 in assay [1] and in assay [2] was above 40 µM throughout.
Take `CC(C)OC(=O)N1CCC(N2CCC(N3C(=O)CO[C@@H]4CCCC[C@H]43)CC2)CC1` [Example 14, Propan-2-yl 4-[4-[(1R,6R)-9-oxo-7-oxa-10-azabicyclo[4.4.0]dec-10yl]-1-piperidyl]piperidine-1-carboxylate]: the half-maximal effective concentration (EC50) in assay [1] and in assay [2] was above 40 µM throughout.
Consider `CCOC(=O)N1CCC(N2CCC(N3C(=O)OC[C@H]4CCCC[C@@H]43)CC2)CC1` [Example 15, Ethyl 4-[4-[(1S,6S)-9-oxo-8-oxa-10-azabicyclo[4.4.0]dec-10-yl]-1-piperidyl]piperidine-1-carboxylate], for which the EC50 in assay [1] and in assay [2] was above 40 µM each time.
